Values joined by “and” are separate entries in the source; they are usually repeats but may differ in a detail not shown here. Equal values may be shown once. Toxic doses and inconclusive results are not listed.
Tested on: L1210 leukemia ip in BDF1 mice, survival T/C
Test: NCI In Vivo Anticancer Drug Screen. Data for tumor model L1210 Leukemia (intraperitoneal) in B6D2F1 (BDF1) mice
Settings: endpoint: mean survival time, higher = longer survival
Method in brief: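 Tumor cells were implanted, animals were treated, and survival was followed. The result divides the treated measurement by the vehicle-control measurement.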

[1] = dose: 100.0 mg/kg/injection, schedule: Q01DX009 (ip), vehicle: Klucel (hydroxypropylcellulose) (HPC)
[2] = dose: 100.0 mg/kg/injection, schedule: Q04DX003 (ip), vehicle: Klucel (hydroxypropylcellulose) (HPC)
[3] = dose: 200.0 mg/kg/injection, schedule: Q01DX009 (ip), vehicle: Klucel (hydroxypropylcellulose) (HPC)
[4] = dose: 200.0 mg/kg/injection, schedule: Q04DX003 (ip), vehicle: Klucel (hydroxypropylcellulose) (HPC)
[5] = dose: 400.0 mg/kg/injection, schedule: Q01DX009 (ip), vehicle: Klucel (hydroxypropylcellulose) (HPC)
[6] = dose: 400.0 mg/kg/injection, schedule: Q04DX003 (ip), vehicle: Klucel (hydroxypropylcellulose) (HPC)
[7] = dose: 100.0 mg/kg/injection, schedule: Q04DX003 (ip), vehicle: saline with Tween-80
[8] = dose: 200.0 mg/kg/injection, schedule: Q04DX003 (ip), vehicle: saline with Tween-80
[9] = dose: 400.0 mg/kg/injection, schedule: Q04DX003 (ip), vehicle: saline with Tween-80
[10] = dose: 100.0 mg/kg/injection, schedule: Q01DX001 (ip), vehicle: Klucel (hydroxypropylcellulose) (HPC)
[11] = dose: 200.0 mg/kg/injection, schedule: Q01DX001 (ip), vehicle: Klucel (hydroxypropylcellulose) (HPC)
[12] = dose: 400.0 mg/kg/injection, schedule: Q01DX001 (ip), vehicle: Klucel (hydroxypropylcellulose) (HPC)
[13] = dose: 100.0 mg/kg/injection, schedule: Q01DX009 (ip), vehicle: saline with Tween-80
[14] = dose: 200.0 mg/kg/injection, schedule: Q01DX009 (ip), vehicle: saline with Tween-80
[15] = dose: 400.0 mg/kg/injection, schedule: Q01DX009 (ip), vehicle: saline with Tween-80
[16] = dose: 100.0 mg/kg/injection, schedule: Q04DX002 (ip), vehicle: saline
[17] = dose: 200.0 mg/kg/injection, schedule: Q04DX002 (ip), vehicle: saline

With `O=c1cc(-c2ccccc2)nc(Nc2nc3ccc([N+](=O)[O-])cc3[nH]2)[nH]1` the T/C [1] was 95 % of control, the T/C [2] was 100 % of control and the T/C [3] was 95 % of control. The T/C [4] was 103 % of control, the T/C [5] was 87 % of control and the T/C [6] was 106 % of control.

`CCOC(=O)C(CCNC(=O)c1ccccc1)C(=O)OCC` was tested, and the T/C [1] was 103 % of control, the T/C [2] was 93 % of control and the T/C [3] was 91 % of control. The T/C [4] was 95 % of control, the T/C [5] was 89 % of control and the T/C [6] was 93 % of control.

`O=C(Nc1ccccc1)OCCc1c2ccccc2[n+]([O-])c2ccccc12` was tested, and the T/C [7] was 91 % of control, the T/C [8] was 91 % of control and the T/C [9] was 102 % of control.

`Cc1cc(NC(=O)NCc2ccc([N+](=O)[O-])cc2Cl)ccc1S(=O)(=O)F` was tested, and the T/C [2] was 98 % of control, the T/C [4] was 98 % of control and the T/C [6] was 106 % of control.

For `CCOc1ccc(N=O)c(O)c1`, the T/C (dose: 75.0 mg/kg/injection, schedule: Q01DX001 (ip), vehicle: carboxymethylcellulose (CMC)) was 101 % of control and the T/C (dose: 150.0 mg/kg/injection, schedule: Q01DX001 (ip), vehicle: carboxymethylcellulose (CMC)) was 90 % of control.

With `O=C(C[n+]1cccc(/C=N\O)c1)c1ccc(-c2ccc(C(=O)C[n+]3cccc(/C=N\O)c3)cc2)cc1` the T/C (dose: 1.5 mg/kg/injection, schedule: Q01DX009 (ip), vehicle: Klucel (hydroxypropylcellulose) (HPC)) was 97 % of control, the T/C (dose: 2.5 mg/kg/injection, schedule: Q01DX009 (ip), vehicle: Klucel (hydroxypropylcellulose) (HPC)) was 102 % of control and the T/C (dose: 3.0 mg/kg/injection, schedule: Q01DX009 (ip), vehicle: Klucel (hydroxypropylcellulose) (HPC)) was 97 % of control. The T/C (dose: 4.0 mg/kg/injection, schedule: Q01DX009 (ip), vehicle: Klucel (hydroxypropylcellulose) (HPC)) was 97 % of control, the T/C (dose: 6.0 mg/kg/injection, schedule: Q01DX009 (ip), vehicle: Klucel (hydroxypropylcellulose) (HPC)) was 94 % of control and 102 % of control and the T/C (dose: 9.0 mg/kg/injection, schedule: Q01DX009 (ip), vehicle: Klucel (hydroxypropylcellulose) (HPC)) was 92 % of control. For the same compound, the T/C (dose: 12.0 mg/kg/injection, schedule: Q01DX009 (ip), vehicle: Klucel (hydroxypropylcellulose) (HPC)) was 98 % of control and the T/C (dose: 12.5 mg/kg/injection, schedule: Q01DX009 (ip), vehicle: Klucel (hydroxypropylcellulose) (HPC)) was 111 % of control.

`NP(=O)(N1CC1)N1CC1` was tested, and the T/C (dose: 1.0 mg/kg/injection, schedule: Q01DX001 (ip), vehicle: carboxymethylcellulose (CMC)) was 110 % of control, the T/C (dose: 1.0 mg/kg/injection, schedule: Q01DX015 (ip), vehicle: carboxymethylcellulose (CMC)) was 116 % of control and the T/C (dose: 2.0 mg/kg/injection, schedule: Q01DX001 (ip), vehicle: carboxymethylcellulose (CMC)) was 124 % of control. The T/C (dose: 4.0 mg/kg/injection, schedule: Q01DX001 (ip), vehicle: carboxymethylcellulose (CMC)) was 110 % of control, the T/C (dose: 15.0 mg/kg/injection, schedule: Q01DX001 (ip), vehicle: carboxymethylcellulose (CMC)) was 150 % of control and the T/C (dose: 30.0 mg/kg/injection, schedule: Q01DX001 (ip), vehicle: carboxymethylcellulose (CMC)) was 186 % of control.

`Cc1n[nH]c(C)c1Br` was tested, and the T/C (dose: 75.0 mg/kg/injection, schedule: Q01DX009 (ip), vehicle: saline with Tween-80) was 95 % of control, the T/C (dose: 75.0 mg/kg/injection, schedule: Q04DX003 (ip), vehicle: saline with Tween-80) was 97 % of control and the T/C (dose: 150.0 mg/kg/injection, schedule: Q01DX009 (ip), vehicle: saline with Tween-80) was 97 % of control. The T/C (dose: 150.0 mg/kg/injection, schedule: Q04DX003 (ip), vehicle: saline with Tween-80) was 95 % of control, the T/C (dose: 300.0 mg/kg/injection, schedule: Q01DX009 (ip), vehicle: saline with Tween-80) was 99 % of control and the T/C (dose: 300.0 mg/kg/injection, schedule: Q04DX003 (ip), vehicle: saline with Tween-80) was 98 % of control.

`[N-]=[N+]=C1c2ccccc2-c2ccccc21` was tested, and the T/C [10] was 94 % of control, the T/C [2] was 104 % of control and the T/C [11] was 93 % of control. The T/C [4] was 90 % of control, the T/C [12] was 91 % of control and the T/C [6] was 101 % of control.

For `COc1ccc([N+](=O)[O-])cc1NC(=O)N(c1ccccc1)C(C)C`, the T/C (dose: 50.0 mg/kg/injection, schedule: Q01DX009 (ip), vehicle: Klucel (hydroxypropylcellulose) (HPC)) was 101 % of control, the T/C [1] was 107 % of control and the T/C [3] was 86 % of control.

In the case of `CC(C)(NCCNC(C)(C)[P+](=O)O)[P+](=O)O`, the T/C [2] is reported as 96 % of control, the T/C [4] is reported as 93 % of control and the T/C [6] is reported as 93 % of control.

For `CN=C(N)Nc1ccc(C(=O)O)cc1`, the T/C (dose: 100.0 mg/kg/injection, schedule: Q01DX009 (ip), vehicle: water) was 102 % of control, the T/C (dose: 100.0 mg/kg/injection, schedule: Q04DX003 (ip), vehicle: water) was 106 % of control and the T/C (dose: 200.0 mg/kg/injection, schedule: Q01DX009 (ip), vehicle: water) was 107 % of control. For the same compound, the T/C (dose: 200.0 mg/kg/injection, schedule: Q04DX003 (ip), vehicle: water) was 89 % of control, the T/C (dose: 400.0 mg/kg/injection, schedule: Q01DX009 (ip), vehicle: water) was 106 % of control and the T/C (dose: 400.0 mg/kg/injection, schedule: Q04DX003 (ip), vehicle: water) was 91 % of control.

With `CC(=O)OC1CC(C)(C)CC(OC(C)=O)C1(C)C` (stereo unspecified) the T/C (dose: 75.0 mg/kg/injection, schedule: Q01DX001 (ip), vehicle: saline) was 100 % of control and the T/C (dose: 150.0 mg/kg/injection, schedule: Q01DX001 (ip), vehicle: saline) was 111 % of control.

For `Cc1cc(CC(O)(C(F)(F)Cl)C(F)(F)Cl)cc(C)n1`, the T/C [13] was 97 % of control, the T/C [14] was 94 % of control and the T/C [15] was 95 % of control.

`Cc1ccc(CO)cc1C` was tested, and the T/C (dose: 50.0 mg/kg/injection, schedule: Q04DX003 (ip), vehicle: saline with Tween-80) was 95 % of control, the T/C [7] was 104 % of control and the T/C [8] was 93 % of control.

With `CCS[P+](NC1CCCCC1)(NC1CCCCC1)NC1CCCCC1` the T/C (dose: 25.0 mg/kg/injection, schedule: Q01DX009 (ip), vehicle: saline with Tween-80) was 94 % of control, the T/C (dose: 25.0 mg/kg/injection, schedule: Q04DX002 (ip), vehicle: saline with Tween-80) was 103 % of control and the T/C (dose: 50.0 mg/kg/injection, schedule: Q01DX009 (ip), vehicle: saline with Tween-80) was 100 % of control. The T/C (dose: 50.0 mg/kg/injection, schedule: Q04DX002 (ip), vehicle: saline with Tween-80) was 98 % of control and the T/C (dose: 100.0 mg/kg/injection, schedule: Q04DX002 (ip), vehicle: saline with Tween-80) was 88 % of control.

`NCCSC1CCCCC1` was tested, and the T/C [16] was 110 % of control and the T/C [17] was 94 % of control.

`O=C(O)C1CC(=O)N(Cc2ccccc2)C1` (stereo unspecified) was tested, and the T/C [13] was 102 % of control, the T/C [7] was 100 % of control and the T/C [14] was 90 % of control. The T/C [8] was 107 % of control, the T/C [15] was 98 % of control and the T/C [9] was 96 % of control.

`Cc1cc(Cl)ccc1NC(C)(C)C` was tested, and the T/C (dose: 75.0 mg/kg/injection, schedule: Q04DX002 (ip), vehicle: Klucel (hydroxypropylcellulose) (HPC)) was 104 % of control, the T/C (dose: 150.0 mg/kg/injection, schedule: Q04DX002 (ip), vehicle: Klucel (hydroxypropylcellulose) (HPC)) was 108 % of control and the T/C (dose: 300.0 mg/kg/injection, schedule: Q04DX002 (ip), vehicle: Klucel (hydroxypropylcellulose) (HPC)) was 104 % of control.

For `O=[N+]([O-])c1cccc(/C=C/C=C/c2ccc(Cl)c(Cl)c2)c1`, the T/C (dose: 100.0 mg/kg/injection, schedule: Q04DX002 (ip), vehicle: Klucel (hydroxypropylcellulose) (HPC)) was 100 % of control, the T/C (dose: 200.0 mg/kg/injection, schedule: Q04DX002 (ip), vehicle: Klucel (hydroxypropylcellulose) (HPC)) was 93 % of control and the T/C (dose: 400.0 mg/kg/injection, schedule: Q04DX002 (ip), vehicle: Klucel (hydroxypropylcellulose) (HPC)) was 96 % of control.

In the case of `COC(=O)C1CCC(=O)CC1`, the T/C [16] is reported as 96 % of control, the T/C [17] is reported as 101 % of control and the T/C (dose: 400.0 mg/kg/injection, schedule: Q04DX002 (ip), vehicle: saline) is reported as 99 % of control.

In the case of `O=C(Nc1scc2c1sc1ccccc12)c1ccccc1`, the T/C [10] is reported as 93 % of control, the T/C [11] is reported as 93 % of control and the T/C [12] is reported as 107 % of control.

Source: PubChem BioAssay AID248 (DTP/NCI, 2004)
